# Test results: patent US20210353784A1, “DETECTING AND TREATING CANCERS USING CELL PENETRANT MTP53-OLIGOMERIZATION-DOMAIN PEPTIDE” (priority 2020, published 2021)
# What was measured:
# WHIM6 and WHIM25 tumors = experiment: Epifluorescence imaging (IVIS) of Cy5p53Tet uptake in bilateral PDX WHIM6/WHIM25 tumors; type: in vivo, NSG mice; settings: 10 nmol tail vein
# Protocol: In vivo optical imaging of Cy5p53Tet peptide uptake in bilateral PDX WHIM6/WHIM25 xenograft models. 2 million WHIM6 cells and WHIM25 cells were injected subcutaneously on the left and right shoulders of each mouse. 10 nmol Cy5p53Tet peptide was intravenously injected to each mouse when tumor size reached to 100-200 mm^3. At 1 hr, 2 hr and 3 hr post Cy5p53Tet peptide injection, the tumors were removed and the epifluorescence images were taken using an IVIS Spectrum. […] Cy5p53Tet peptide epifluorescence intensity quantification in WHIM6 and WHIM25 tumors was analyzed.
# First, WHIM6/WHIM25 bilateral PDX tumor-bearing NSG mice were tail vein injected with 10 nmol of Cy5p53Tet peptide to study its delivery efficacy (FIG. 5A). Then, the WHIM6 and WHIM25 tumors were removed at 1, 2, and 3 hr post-injection. Uptake of the Cy5p53Tet peptide in WHIM6 and WHIM25 tumors was assessed on an in vivo epifluorecent imaging system (IVIS). […] The Cy5p53Tet peptide signal was investigated in PDX tumor tissue by extracting proteins from the WHIM6 and WHIM25 tumors post-injection with the Cy5p53Tet peptide at 1 hr, 2 hr, and 3 hr, and the Cy5p53Tet peptide effects were characterized in PDX models (FIG. 5B). Samples were run on 12% polyacrylamide gel and the Cy5p53Tet peptide accumulated in tumors was scanned at Cy5 channel and quantified. […]
# mtp53 = molecular target: T1, mtp53 (Homo sapiens, UniProt P04637, R273H); experiment: Glutaraldehyde cross-link assay in MDA-MB-468 cell lysates; type: binding; settings: in the presence of glutaraldehyde; cells treated 1.5 μM, 4 h; Cy5 channel
# T1 construct: endogenous in cells; host or cells: MDA-MB-468
# Excerpt: FIG. 4D illustrates Cy5p53Tet treated with glutaraldehyde without MDA-MB-468 cell lysate.
# Wtp53 can form a tetramer, and its oligomerization regulates its transcriptional activity. Tetramerization is important for both wtp53 and mtp53, as both are preferentially degraded by MDM2 when present as dimers rather than tetramers. The oligomerization states of mtp53 were examined and the interactions were investigated by Cy5p53Tet and mtp53 using glutaraldehyde (GA) cross-linking assays (FIG. 4A to FIG. 4D). MDA-MB-468 cells were treated with vehicle or 1.5 μM of Cy5p53Tet for 4 h. Whole-cell lysates were cross-linked with glutaraldehyde concentrations of 0, 0.0025, or 0.005%, and the samples were analyzed by Western blot to detect p53 oligomerization forms (FIG. 4A). In cells without glutaraldehyde, monomers of mtp53 were detected; at 0.0025% glutaraldehyde, monomers, dimers, and tetramers were visible; and at 0.005% glutaraldehyde, the predominant form was tetramers. The presence of Cy5p53Tet-containing mtp53 polypeptides was evaluated using the Cy5 channel (FIG. 4B). Cy5p53Tet was detected at a low molecular weight: <12 kDa in the absence of glutaraldehyde (FIG. 4B, lane 4). […] As a control, the glutaraldehyde cross-linking of Cy5p53Tet was examined without mtp53 and found no such signal (FIG. 4D). […]
# MDA-MB-468.shp53 cells = experiment: Cy5p53Tet uptake in MDA-MB-468 shp53 cells with or without mtp53 depletion (live cell imaging); type: cell-based, Human; settings: 500 nM
substance,measurement,setting,value
H-CysCy5-RKKRRQRRGEYFTLQIRGRERFEMFRELNEALELK-OH (N-terminal Cy5; Synthetic peptide based on p53 protein) [Cy5p53Tet],Cy5 fluorescence signal in the tumor site of WHIM6 compared to WHIM25,WHIM6 and WHIM25 tumors,higher
same,molecular weight at which Cy5p53Tet was observed,mtp53,> 225 kDa
same,reduction of the Cy5p53Tet signal upon mtp53 depletion (relative ROI intensity),MDA-MB-468.shp53 cells; 30 min,61%
same,reduction of the Cy5p53Tet signal upon mtp53 depletion (relative ROI intensity),MDA-MB-468.shp53 cells; 2 h,63%
same,reduction of the Cy5p53Tet signal upon mtp53 depletion (relative ROI intensity),MDA-MB-468.shp53 cells; 4 h,67%
same,difference of Cy5p53Tet signal between knockdown and control cells,MDA-MB-468.shp53 cells; 24 h,no statistically significant difference
